Test results as given in ChEMBL document CHEMBL3046543, “Larvicidal and adulticidal activity of alkylphthalide derivatives from rhizome of Cnidium officinale against Drosophila melanogaster” (J Agric Food Chem, 2005).

Experiments:
Type in all cases: functional
Drosophila melanogaster [1] = experiment: Relative toxicity, LD50 for rotenone Drosophila melanogaster adulticidal activity to LD50 for compound Drosophila melanogaster adulticidal activity
Drosophila melanogaster [2] = experiment: Relative toxicity, LC50 for rotenone Drosophila melanogaster larvicidal activity to LC50 for compound Drosophila melanogaster larvicidal activity
Drosophila melanogaster [3] = experiment: Insecticidal activity against 5 to 7 days old adult Drosophila melanogaster assessed as mortality measured as inability to move compound treated in diet at 25 degC and >90% RH treated for 8 days
Drosophila melanogaster [4] = experiment: Insecticidal activity against Drosophila melanogaster larvae assessed as mortality compound treated in diet at 25 degC and >90% RH treated for 8 days; settings: feed or water, 192 h

SMILES	Ratio (Drosophila melanogaster [1])	RatioLC50 (Drosophila melanogaster [2])	LD50 (Drosophila melanogaster [3])	LC50 (Drosophila melanogaster [4])
CCCC[C@@H]1OC(=O)c2ccccc21 [(3S)-BUTYLPHTHALIDE]	0.62	0.004	5.93 µg	4.99 mM
CCCC[C@@H]1OC(=O)[C@@H]2C=CCC[C@H]12 [CNIDILIDE]	0.4	<0.001	9.17 µg	> 16 mM
CCC/C=C1\OC(=O)C2=C1CCC=C2 [LIGUSTILIDE]	<0.07	0.009	>50 µg	2.54 mM
CCCC[C@@H]1OC(=O)C2=CCCC[C@H]21 [NEOCNIDILIDE]	0.34	0.002	10.82 µg	9.9 mM
C=C(C)[C@H]1Cc2c(ccc3c2O[C@@H]2COc4cc(OC)c(OC)cc4[C@@H]2C3=O)O1 [ROTENONE]	1	1	3.68 µg	0.02 mM
